Results reported in patent US20250188110A1, “SPECIFIC SMALL MOLECULE INHIBITORS THAT BLOCK KMT9 METHYLTRANSFERASE ACTIVITY AND FUNCTION” (ALBERT-LUDWIGS-UNIVERSITÄT FREIBURG, priority 2021, published 2025).
Like-named read-outs stand apart in the source and are kept apart here.

Assays:
KMT9 [1] = target: T1, KMT9 (Homo sapiens, UniProt Q9Y5N5); assay: Microscale thermophoresis (MST) KMT9 binding
T1 sequence (Q9Y5N5 1-214): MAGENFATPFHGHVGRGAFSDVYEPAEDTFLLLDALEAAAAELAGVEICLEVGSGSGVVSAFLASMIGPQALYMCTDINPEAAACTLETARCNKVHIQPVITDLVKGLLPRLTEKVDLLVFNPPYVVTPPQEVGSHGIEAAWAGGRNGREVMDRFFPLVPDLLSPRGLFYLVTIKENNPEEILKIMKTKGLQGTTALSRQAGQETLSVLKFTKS
T1 sequence (Q9UI30 1-120 isoform Q9UI30-2 partner): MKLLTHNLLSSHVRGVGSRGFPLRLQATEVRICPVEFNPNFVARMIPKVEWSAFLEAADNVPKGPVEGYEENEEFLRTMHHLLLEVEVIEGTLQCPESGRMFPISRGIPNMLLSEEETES
How it was run: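 His-tagged KMT9 (20 nM), RED-Tris-NTA labelled, titrated with varying compound concentrations in 25 mM HEPES pH 7.5, 100 mM NaCl, 1 mM DTT, 0.05% Tween. MST at 40% MST and 100% LED power, Nano-RED excitation; Kd binned A ≤10 nM, B 10–100, C 100–1000, D >1000 nM.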

KMT9 [2] = target: T1, KMT9; assay: KMT9 thermal shift assay (SyproOrange); assay type: binding
How it was run: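 Recombinant KMT9 was incubated with compound and SyproOrange at 25° C in 50 mM BTP pH 8.5, 1 mM MgCl2, 1 mM DTT. It was then heated from 20° C to 95° C at 1° C per 15 s with fluorescence read each step. Tm came from a Boltzmann sigmoidal fit; ΔTm relative to DMSO control, binned in 5 K ranges.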

KMT9 [3] = target: T1, KMT9; assay: KMT9 methyltransferase inhibition assay, MTaseGlo luminescence (from entry 155); assay type: biochemical; conditions: 100 nM KMT9, 5 μM ETF1, 1 μM SAM
Protocol: For the compounds from entry 155 on in Table 1, the following procedure was used to determine IC50 values: The assay was carried out in white, opaque 384-well OptiPlates (PerkinElmer). For IC50 determination, a 2.5x substrate mix (final assay concentrations: 5 μM ETF1, 1 μM SAM and 1x MTaseGlo Reagent), a 2.5x KMT9 solution (final assay concentration 100 nM) and a 5x inhibitor stock 1:1 dilution series (concentration according to the desired range; dilution series was prepared in assay buffer containing 10% DMSO to obtain a final DMSO concentration of 2% in the assay) were prepared. 2 μL of 5x inhibitor stock and 4 μL of 2.5x KMT9 were pipetted, the plate was spun down at 700 rpm for 1 min using a Hettich UNIVERSAL 320 centrifuge and incubated at room temperature (around 25° C.) for 15 min. The reaction was initiated by adding 4 μL of 2.5x substrate mix, the plate was spun down as described before and incubated at 30° C. for 2 h. Afterwards, 10 μL of 2× MTaseGlo Detection solution was added, the plate was centrifuged as described above and incubated for 60 min at room temperature. Luminescence was measured using a PerkinElmer EnVision 2102 Multilabel Reader. Calculation of inhibition and data fitting was carried out as for entries 1-154. described above.
For the results of the methyltransferase inhibition assay shown as “Inhibition” in Table 1, “I” represents an IC50 less than 0.1 μM, “II” represents an IC50 equal or higher than 0.1 μM and less than 1 μM, “III” represents an IC50 equal or higher than 1 µM and less than 10 µM and “IV” represents an IC50 equal or higher than 10 µM

KMT9 [4] = target: T1, KMT9; assay: KMT9 methyltransferase inhibition assay, 3H-SAM scintillation (entries 1-154); assay type: biochemical; conditions: entries 1-154: 3H-SAM assay, 25 nM KMT9, 5 μM ETF1
How it was run: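 Final 25 nM KMT9, 5 μM ETF1 (residues 140-275), 0.3 μM 3H-SAM plus 0.7 μM SAM in pH 8.5 BTP buffer, 2 h at 30° C. TCA-quenched, filter-washed, methylation counted by scintillation; % inhibition vs DMSO and no-enzyme controls, IC50 from four-parameter fit.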

[5] = His-tag labelled KMT9 20 nM, read-out: MST (Kd)
[6] = 500 µM compound, 2 μM KMT9, read-out: Thermal shift (ΔTm)
[7] = MTaseGlo procedure (entries from 155), read-out: Inhibition (IC50)
[8] = microscale thermophoresis, His-tag labelled KMT9 (20 nM), read-out: MST
[9] = ΔTm, 500 µM compound, 2 μM KMT9, 5X SO, read-out: Thermal shift
[10] = from entry 155: MTaseGlo assay, read-out: Inhibition
[11] = His-tag labelled KMT9 20 nM, Kd class, read-out: MST
[12] = ΔTm class, 500 uM compound, 2 μM KMT9, read-out: Thermal shift
[13] = IC50 class, MTaseGlo procedure (entries from 155 on), read-out: Inhibition

Structure (SMILES) | Kd (KMT9 [1]; [8]) | ΔTm at 500 µM (KMT9 [2]; [9]) | IC50 (KMT9 [3]; [10]) | further results
Nc1nc(Cl)nc2c1c(Br)cn2[C@@H]1CC(CNCCCNCCc2ccc(F)cc2)[C@@H](O)[C@H]1O (mixture of isomers) [Compound 547, (1R,2S,3R)-3-(4-amino-5-bromo-2-chloro-7H-pyrrolo[2,3-d]pyrimidin-7-yl)-5-(((3-((4-fluorophenethyl)amino)propyl)amino)methyl)cyclopentane-1,2-diol] | – | – | – | Kd (KMT9 [1]; [5]): ≤ 0.01 µM; ΔTm at 500 µM (KMT9 [2]; [6]): > 20 °C; IC50 (KMT9 [3]; [7]): 0.1 to 1 µM
O[C@@H]1[C@H](O)C(CNCCCNCCc2ccc(F)cc2)C[C@H]1n1cc(-c2cccs2)c2cnc(Cl)nc21 (mixture of isomers) [Compound 581, (1R,2S,3R)-3-(2-chloro-5-(thiophen-2-yl)-7H pyrrolo[2,3-d]pyrimidin-7-yl)-5-(((3-((4-fluorophenethyl)amino)propyl)amino)methyl)cyclopentane-1,2-diol] | – | – | – | Kd (KMT9 [1]; [5]): ≤ 0.01 µM; ΔTm at 500 µM (KMT9 [2]; [6]): 10 to 15 °C; IC50 (KMT9 [3]; [7]): 1 to 10 µM
Nc1nc(Cl)nc2c1c(-c1nccs1)cn2[C@@H]1CC(CN(CCCNCCc2ccc(F)cc2)c2cn[nH]c2)[C@@H](O)[C@H]1O (single isomer, unassigned) [Compound 543] | – | – | – | Kd (KMT9 [1]; [5]): ≤ 0.01 µM; ΔTm at 500 µM (KMT9 [2]; [6]): > 20 °C; IC50 (KMT9 [3]; [7]): 0.1 to 1 µM
Nc1ncnc2c1c(-c1nc(Cc3ccccc3)cs1)cn2[C@@H]1C[C@H]([C@@H]2CCCNC2)[C@@H](O)[C@H]1O (single isomer, unassigned) [Compound 593R] | 0.1 to 1 µM | 15 to 20 °C | 1 to 10 µM | –
Nc1ncnc2c1c(-c1nc(Cc3ccccc3)cs1)cn2[C@@H]1C[C@H]([C@H]2CCCNC2)[C@@H](O)[C@H]1O (single isomer, unassigned) [Compound 593S] | 0.1 to 1 µM | 10 to 15 °C | 1 to 10 µM | –
CCc1cn([C@@H]2C[C@H](CNCCCNCCc3ccc(C(F)(F)F)cc3)[C@@H](O)[C@H]2O)c2ncnc(N)c12 [Compound 379, (1R,2S,3R,5R)-3-(4-amino-5-ethyl-7H-pyrrolo[2,3-d]pyrimidin-7-yl)-5-(((3-((4-(trifluoromethyl)phenethyl)amino)propyl)amino)methyl) cyclopentane-1,2-diol] | 0.1 to 1 µM | 10 to 15 °C | 1 to 10 µM | –
CCc1cn([C@@H]2C[C@H](CNCCCNCCc3ccc(F)cc3)[C@@H](O)[C@H]2O)c2ncnc(N)c12 [Compound 381, (1R,2S,3R,5R)-3-(4-amino-5-ethyl-7H-pyrrolo[2,3-d]pyrimidin-7-yl)-5-(((3-((4-fluorophenethyl)amino)propyl)amino)methyl) cyclopentane-1,2-diol] | 0.1 to 1 µM | 10 to 15 °C | 1 to 10 µM | –
CCc1cn([C@@H]2C[C@H](CNCCCNCCc3ccc(F)cc3F)[C@@H](O)[C@H]2O)c2ncnc(N)c12 [Compound 383, (1R,2S,3R,5R)-3-(4-amino-5-ethyl-7H-pyrrolo[2,3-d]pyrimidin-7-yl)-5-(((3-((2,4-difluorophenethyl)amino)propyl)amino)methyl) cyclopentane-1,2-diol] | 0.01 to 0.1 µM | 10 to 15 °C | 1 to 10 µM | –
Nc1ncnc2c1ccn2[C@@H]1C[C@H](c2cc(Cl)cc(Cl)c2)[C@@H](O)[C@H]1O [Compound 384, (1R,2S,3R,5R)-3-(4-amino-7H-pyrrolo[2,3-a]pyrimidin-7-yl)-5-(3,5-dichlorophenyl) cyclopentane-1,2-diol] | > 1 µM | ≤ 10 °C | > 10 µM | –
Nc1ncnc2c1ccn2[C@@H]1C[C@H](c2ccccc2)[C@@H](O)[C@H]1O [Compound 385, (1R,2S,3R,5R)-3-(4-amino-7H-pyrrolo[2,3-d]pyrimidin-7-yl)-5-phenylcyclopentane-1,2-diol] | > 1 µM | ≤ 10 °C | > 10 µM | –
Nc1ncnc2c1c(Br)cn2[C@@H]1C[C@H](c2ccccc2)[C@@H](O)[C@H]1O [Compound 386, (1R,2S,3R,5R)-3-(4-amino-5-bromo-7H-pyrrolo[2,3-a]pyrimidin-7-yl)-5-phenylcyclopentane-1,2-diol] | – | – | – | Kd (KMT9 [1]; [11]): > 1 µM; ΔTm at 500 µM (KMT9 [2]; [12]): ≤ 10 °C; IC50 (KMT9 [3]; [13]): > 10 µM
Nc1ncnc2c1ccn2[C@@H]1C[C@H](c2ccc3ccccc3c2)[C@@H](O)[C@H]1O [Compound 387, (1R,2S,3R,5R)-3-(4-amino-7H-pyrrolo[2,3-d]pyrimidin-7-yl)-5-(naphthalen-2-yl) cyclopentane-1,2-diol] | > 1 µM | ≤ 10 °C | > 10 µM | –
Nc1ncnc2c1ccn2[C@@H]1C[C@H](c2ccncc2)[C@@H](O)[C@H]1O [Compound 389, (1R,2S,3R,5R)-3-(4-amino-7H-pyrrolo[2,3-d]pyrimidin-7-yl)-5-(pyridin-4-yl) cyclopentane-1,2-diol] | > 1 µM | ≤ 10 °C | > 10 µM | –
Nc1ncnc2c1ccn2[C@@H]1C[C@H](c2cccs2)[C@@H](O)[C@H]1O [Compound 390, (1R,2S,3R,5S)-3-(4-amino-7H-pyrrolo[2,3-a]pyrimidin-7-yl)-5-(thiophen-2-yl) cyclopentane-1,2-diol] | > 1 µM | ≤ 10 °C | > 10 µM | –
Nc1ncnc2c1ccn2[C@@H]1C[C@H](c2ccn[nH]2)[C@@H](O)[C@H]1O [Compound 391, (1R,2S,3R,5R)-3-(4-amino-7H-pyrrolo[2,3-d]pyrimidin-7-yl)-5-(1H-pyrazol-5-yl) cyclopentane-1,2-diol] | – | – | – | Kd (KMT9 [1]; [11]): > 1 µM; ΔTm at 500 µM (KMT9 [2]; [12]): ≤ 10 °C; IC50 (KMT9 [3]; [13]): > 10 µM
NCc1cccc([C@H]2C[C@@H](n3cc(Br)c4c(N)nc(Cl)nc43)[C@H](O)[C@@H]2O)c1 [Compound 393, (1R,2S,3R,5R)-3-(4-amino-5-bromo-2-chloro-7H-pyrrolo[2,3-d]pyrimidin-7-yl)-5-(3-(aminomethyl)phen-yl) cyclopentane-1,2-diol] | – | – | – | Kd (KMT9 [1]; [5]): ≤ 0.01 µM; ΔTm at 500 µM (KMT9 [2]; [6]): 15 to 20 °C; IC50 (KMT9 [3]; [7]): 0.1 to 1 µM
O[C@@H]1[C@H](O)[C@@H](C2CCCN(CC3CC3)C2)C[C@H]1n1cc(-c2nc(Cc3ccccc3)cs2)c2cnc(Cl)nc21 (stereo partly drawn) [Compound 516, (1R,2S,3R,5R)-3-(5-(4-benzylthiazol-2-yl)-2-chloro-7H-pyrrolo[2,3-d]pyrimidin-7-yl)-5-(1-(cyclopropylmethyl)piperidin-3-yl)cyclopentane-1,2-diol] | – | – | – | Kd (KMT9 [1]; [11]): 0.1 to 1 µM; IC50 (KMT9 [3]; [13]): 1 to 10 µM
CCc1cn([C@@H]2C[C@H](CNCCCNCCc3ccccc3)[C@@H](O)[C@H]2O)c2ncnc(Cl)c12 [Compound 632, (1R,2S,3R,5R)-3-(4-chloro-5-ethyl-7H-pyrrolo[2,3-d]pyrimidin-7-yl)-5-(((3-(phenethylamino)propyl)amino)methyl)cyclopentane-1,2-diol] | > 1 µM | ≤ 10 °C | – | IC50 (KMT9 [4]): > 10 µM
O[C@@H]1[C@@H](CNCCCNCCc2ccccc2)C[C@@H](n2cc(-c3[nH]ncc3Cl)c3cncnc32)[C@@H]1O [Compound 633, (1R,2S,3R,5R)-3-(5-(4-Chloro-1H-pyrazol-5-yl)-7H-pyrrolo[2,3-d]pyrimidin-7-yl)-5-(((3-(phenethylamino)propyl)amino)methyl)cyclopentane-1,2-diol] | > 1 µM | ≤ 10 °C | – | IC50 (KMT9 [4]): 1 to 10 µM
